# Assay results reported in patent US20230278954A1, “BRANCHED LIPID COMPOUDS” (priority 2020, published 2023).
# Where “and” joins values, the source holds several entries; their conditions need not be identical. Identical values can stand only once.
# Tests used:
# [1] = Stability IV: accelerated storage stability over 28 days, UHPLC; assay type: physicochemical; details: 40° C./75% RH
# Procedure: (§1) Each compound was formulated in 0.9% w/w saline with addition of 0.1% w/w EDTA at about pH 5. The formulations were stored in the dark under accelerated conditions (40° C./75% RH) and reference formulations were stored at -80° C. At days 0, 9 and 28, samples were analysed by UHPLC and pH was measured.
# Approximately 1.5 mg of each compound was weighed into glass HPLC vials and 1.5 mL of saline/EDTA formulation adjusted to pH 5.0 was added. The vials were vortex mixed then warmed under running hot water until full dissolution was observed.
# 4 × 100 uL aliquots of each solution were transferred to Agilent polypropylene 200 µL HPLC vials for storage under accelerated and reference conditions (two aliquots at each condition). These vials were removed at each time point for HPLC analysis. The frozen reference solutions at Day 9 and Day 28 were gently warmed under running hot water followed by vortex mixing for ~ 10 sec and sonication for 10 min to encourage complete dissolution. […]
# Compounds B4 and B12 were analysed according to Gradient 2: […]
# UHPLC results were analysed in a similarly to that described in Example 8. […]
# Percentage recovery of main peak area is calculated according to the following equation (1): […]
# human TLR2 [2] = molecular target: T1, human TLR2 (Homo sapiens, UniProt O60603); test: Activation of human TLR2 III: HEK-Blue hTLR2 dose response (SEAP reporter); assay type: cell-based; details: for optical density (650 nm): screenings 1-3
# T1 construct: expressed in transfected cells; host or cells: HEK-Blue hTLR2 cells
# T1 sequence (O60603 21-784): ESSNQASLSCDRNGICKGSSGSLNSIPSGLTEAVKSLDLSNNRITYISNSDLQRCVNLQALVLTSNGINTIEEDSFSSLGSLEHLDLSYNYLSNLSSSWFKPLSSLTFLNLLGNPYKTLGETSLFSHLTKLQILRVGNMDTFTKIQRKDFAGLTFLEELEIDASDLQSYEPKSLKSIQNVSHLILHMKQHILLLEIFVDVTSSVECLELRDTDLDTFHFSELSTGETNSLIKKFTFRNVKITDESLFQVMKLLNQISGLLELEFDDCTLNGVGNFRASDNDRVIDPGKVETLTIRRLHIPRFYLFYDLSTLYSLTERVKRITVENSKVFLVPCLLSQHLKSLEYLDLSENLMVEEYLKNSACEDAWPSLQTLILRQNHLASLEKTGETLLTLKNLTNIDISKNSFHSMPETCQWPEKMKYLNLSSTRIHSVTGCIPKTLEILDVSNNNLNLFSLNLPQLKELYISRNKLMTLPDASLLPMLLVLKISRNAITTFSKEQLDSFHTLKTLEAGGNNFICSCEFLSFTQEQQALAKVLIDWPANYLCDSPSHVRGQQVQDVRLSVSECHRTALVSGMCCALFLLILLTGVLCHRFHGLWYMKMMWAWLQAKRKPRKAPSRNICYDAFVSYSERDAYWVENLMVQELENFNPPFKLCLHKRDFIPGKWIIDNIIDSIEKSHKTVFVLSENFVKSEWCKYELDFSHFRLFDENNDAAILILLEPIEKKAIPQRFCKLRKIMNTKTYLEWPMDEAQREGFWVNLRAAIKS
# T1 sequence (Q9Y2C9 32-796 partner): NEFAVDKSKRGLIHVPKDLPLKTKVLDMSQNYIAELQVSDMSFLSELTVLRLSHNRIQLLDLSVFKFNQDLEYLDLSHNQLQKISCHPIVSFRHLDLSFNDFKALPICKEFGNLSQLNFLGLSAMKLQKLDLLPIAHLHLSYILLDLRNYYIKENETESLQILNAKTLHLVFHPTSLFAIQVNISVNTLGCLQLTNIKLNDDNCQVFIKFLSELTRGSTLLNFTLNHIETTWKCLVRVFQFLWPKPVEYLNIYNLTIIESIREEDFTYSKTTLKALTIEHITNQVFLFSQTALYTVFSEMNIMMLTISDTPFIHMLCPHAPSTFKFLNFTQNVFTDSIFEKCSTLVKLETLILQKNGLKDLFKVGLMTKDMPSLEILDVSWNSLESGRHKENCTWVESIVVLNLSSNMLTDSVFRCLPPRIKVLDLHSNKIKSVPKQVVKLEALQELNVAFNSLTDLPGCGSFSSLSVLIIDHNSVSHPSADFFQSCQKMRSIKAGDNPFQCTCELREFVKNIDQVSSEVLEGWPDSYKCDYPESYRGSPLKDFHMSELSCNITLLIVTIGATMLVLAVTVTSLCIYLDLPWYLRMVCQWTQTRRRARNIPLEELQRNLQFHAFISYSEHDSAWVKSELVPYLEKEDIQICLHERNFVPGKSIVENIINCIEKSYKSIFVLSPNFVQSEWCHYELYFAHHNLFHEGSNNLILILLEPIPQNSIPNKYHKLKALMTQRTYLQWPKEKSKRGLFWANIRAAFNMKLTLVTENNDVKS
# Procedure: Toll-Like Receptor (TLR) stimulation is tested by assessing NF-KB activation in the TLR expressing cell lines. HEK-Blue h/mTLR2 cells have been stably transfected with human or mouse TLR2 and CD14. The activity of the test articles are tested on human and mouse TLR2, as potential agonists. The test articles are evaluated at seven concentrations and compared to control ligands (see list below). These steps are performed in triplicate.
# A 5 µg/mL working stock was then prepared for each compound from the 20 µg/mL dilution in sterile PBS. Starting from the 5 µg/mL working stock, a series of six 1:4 serial dilutions were made by mixing 100 µL of the previous highest dilution with 300 µL sterile PBS.
# (§2) The secreted embryonic alkaline phosphatase (SEAP) reporter is under the control of a promoter inducible by the transcription factor NF-κB. This reporter gene allows the monitoring of signaling through the TLR, based on the activation of NF-κB. In a 96-well plate (200 µL total volume) containing the appropriate cells (50,000 - 75,000 cells/well), 20 µL of the test article or the positive control ligand (HKLC) is added to the wells. The media added to the wells is designed for the detection of NF-κB induced SEAP expression. After a 16-24-hour incubation the optical density (OD) is read at 650 nm on a Molecular Devices SpectraMax 340PC absorbance detector.
# human TLR2 [3] = molecular target: T1, human TLR2; test: Activation of human TLR2 II: HEK-BLUE-hTLR2 NF-kB/SEAP reporter assay; assay type: cell-based; details: for optical density (650 nm): screenings 1-3
# Procedure: The potency of the compounds as activators of human TLR-2s is tested in an in vitro assay in HEK-BLUE-hTLR2 cells.
# HEK-BLUE-hTLR2 cells are designed for studying the stimulation of human TLR2 (hTLR2) by monitoring the activation of NF-kB. HEK-BLUE-hTLR2 cells are obtained by co-transfection of the hTLR2 and SEAP (secreted embryonic alkaline phosphatase) reporter genes into HEK293 cells. Stimulation with a TLR2 ligand activates NF-kB which induces the production of SEAP.
# HEK-BLUE-hTLR2 cells were purchased from InvivoGen (San Diego, CA, USA). Cells were grown in DMEM supplemented with 10% FCS, 100 U/ml penicillin, 100 ug/ml streptomycin and 2 mM L-glutamine, 100 µg/mL Normocin in the presence of selection antibiotic purchased from InvivoGen and passaged when 70% confluence was reached per manufacturer’s recommendation.
# i) A serial dilution of respective compounds were prepared in saline and added in […] of each dilution in triplicates per well in a flat bottom 96-well plate and placed in the incubator while waiting for the cells.
# ii) Remove HEK-BLUE-hTLR2 cells in a T-75 flask from incubator and discard the growth media.
# iii) Gently rinse the cells with prewarmed 10 ml of PBS
# iv) Add 5 ml of prewarmed PBS and place the cells in 37° C. for 2 mins and then detach the cells by gently pipetting up and down the PBS on the surface where the cells adhere.
# v) Cells suspension at the density of 280,000 cells/ml is prepared in HEK-Blue™ Detection medium which is purchased from InvivoGen and prepared according to the manufacturer’s instruction,
# vi) Add immediately […] of the cell suspension per well of the plate which contains the solution of the compounds. […]
# HEK-Blue Null2 cells = test: TLR- control cell line HEK-Blue Null2 (control for mouse TLR2); assay type: cell-based
# Procedure: as §2
# [4] = Stability IV: formulation pH during accelerated storage; assay type: physicochemical
# Procedure: as §1
# The remaining ~ 1 mL of solution in the clear glass HPLC vials was stored at 40° C./75% RH and was used to measure pH at each time point.
# The formulation pH data recorded at each time point are compiled in Table 19. There was a general trend for the pH to increase with time but the effect was not pronounced.
compound,measurement,setting,value
CCCCCCCCCCCCCCC(C)C(=O)OCC[C@H](CSC[C@H](N)C(=O)N[C@@H](CO)C(=O)NCCOCCOCCOCCOCCOCCOCCOCCOCCOCCOCCOCCOCCOCCOCCOCCOCCOCCOCCOCCOCCOCCOCCOCCOCCOCCOCCOCCOCCC(=O)NCC(N)=O)OC(=O)C(C)CCCCCCCCCCCCCC (some centres unmarked) [Compound B12],storage stability under accelerated conditions (in words),[1],most stable compounds
same,Average optical density (650 nm),human TLR2 [2]; 0.12 pg/mL,1.362
same,optical density (650 nm),human TLR2 [2]; 0.12 pg/mL,1.443 and 1.313 and 1.329
same,Average optical density (650 nm),human TLR2 [2]; 0.49 pg/mL,1.860
same,optical density (650 nm),human TLR2 [2]; 0.49 pg/mL,1.892 and 1.785 and 1.902
same,Average optical density (650 nm),human TLR2 [2]; 1.95 pg/mL,2.045
same,optical density (650 nm),human TLR2 [2]; 1.95 pg/mL,2.149 and 2.008 and 1.979
same,Average optical density (650 nm),human TLR2 [2]; 7.81 pg/mL,2.411
same,optical density (650 nm),human TLR2 [2]; 7.81 pg/mL,2.420 and 2.446 and 2.366
same,Average optical density (650 nm),human TLR2 [2]; 31.25 pg/mL,2.457
same,optical density (650 nm),human TLR2 [2]; 31.25 pg/mL,2.492 and 2.500 and 2.380
same,Average optical density (650 nm),human TLR2 [2]; 125 pg/mL,2.568
same,optical density (650 nm),human TLR2 [2]; 125 pg/mL,2.608 and 2.541 and 2.555
same,Average optical density (650 nm),human TLR2 [2]; 500 pg/mL,2.471
same,optical density (650 nm),human TLR2 [2]; 500 pg/mL,2.584 and 2.404 and 2.426
same,stimulatory / agonist activity for hTLR2 (in words),human TLR2 [2]; HEK-Blue hTLR2,stimulatory activity
same,fold induction at 120 fg/mL,"human TLR2 [2]; HEK-Blue hTLR2, 0.12 pg/mL, read-out: Fold Induction (ratio of average induced value to average non-induced value)",18.7
same,fold induction at 490 fg/mL,"human TLR2 [2]; HEK-Blue hTLR2, 0.49 pg/mL, read-out: Fold Induction (ratio of average induced value to average non-induced value)",25.5
same,fold induction at 1.95 pg/mL,"human TLR2 [2]; HEK-Blue hTLR2, 1.95 pg/mL, read-out: Fold Induction (ratio of average induced value to average non-induced value)",28
same,fold induction at 7.81 pg/mL,"human TLR2 [2]; HEK-Blue hTLR2, 7.81 pg/mL, read-out: Fold Induction (ratio of average induced value to average non-induced value)",33
same,fold induction at 31.25 pg/mL,"human TLR2 [2]; HEK-Blue hTLR2, 31.25 pg/mL, read-out: Fold Induction (ratio of average induced value to average non-induced value)",33.7
same,fold induction at 0.000125 µg/mL,"human TLR2 [2]; HEK-Blue hTLR2, 125 pg/mL, read-out: Fold Induction (ratio of average induced value to average non-induced value)",35.2
same,fold induction at 0.0005 µg/mL,"human TLR2 [2]; HEK-Blue hTLR2, 500 pg/mL, read-out: Fold Induction (ratio of average induced value to average non-induced value)",33.9
same,EC50,"human TLR2 [2]; agonism of hTLR2, HEK-Blue hTLR2",0.0509 nM
same,optical density (650 nm),human TLR2 [3]; 0.1 ng/mL,0.239 and 0.202 and 0.208
same,optical density (650 nm),human TLR2 [3]; 0.31 ng/mL,0.116 and 0.132 and 0.137
same,optical density (650 nm),human TLR2 [3]; 0.5 ng/mL,0.585 and 0.558 and 0.559
same,optical density (650 nm),human TLR2 [3]; 2.0 ng/mL,1.429 and 1.308 and 1.638
same,optical density (650 nm),human TLR2 [3]; 7.8 ng/mL,2.187 and 2.257 and 2.302
same,optical density (650 nm),human TLR2 [3]; 31.3 ng/mL,2.422 and 2.423 and 2.449
same,optical density (650 nm),human TLR2 [3]; 125 ng/mL,2.409 and 2.564 and 2.615
same,EC50,human TLR2 [3]; HEK-BLUE-hTLR2 cells,0.74 nM
same,activity at TLR2 (in words),human TLR2 [3]; HEK-BLUE-hTLR2 cells,significant activity
same,fold induction at 0.0001 µg/mL,"human TLR2 [3]; HEK-Blue hTLR2, 0.1 ng/mL, read-out: Fold induction (ratio of average induced value to average non-induced value)",2.2
same,fold induction at 0.00031 µg/mL,"human TLR2 [3]; HEK-Blue hTLR2, 0.31 ng/mL, read-out: Fold induction (ratio of average induced value to average non-induced value)",1.3
same,fold induction at 0.0005 µg/mL,"human TLR2 [3]; HEK-Blue hTLR2, 0.5 ng/mL, read-out: Fold induction (ratio of average induced value to average non-induced value)",5.8
same,fold induction at 0.002 µg/mL,"human TLR2 [3]; HEK-Blue hTLR2, 2.0 ng/mL, read-out: Fold induction (ratio of average induced value to average non-induced value)",15
same,fold induction at 0.0078 µg/mL,"human TLR2 [3]; HEK-Blue hTLR2, 7.8 ng/mL, read-out: Fold induction (ratio of average induced value to average non-induced value)",23.2
same,fold induction at 0.0313 µg/mL,"human TLR2 [3]; HEK-Blue hTLR2, 31.3 ng/mL, read-out: Fold induction (ratio of average induced value to average non-induced value)",25.1
same,fold induction at 0.125 µg/mL,"human TLR2 [3]; HEK-Blue hTLR2, 125 ng/mL, read-out: Fold induction (ratio of average induced value to average non-induced value)",26.1
same,stimulatory response in HEK-Blue Null2 (mouse) cells (in words),HEK-Blue Null2 cells,not observed
same,pH of formulation,[4]; 0-days,5.6
same,pH of formulation,"[4]; 9-days, 40° C./75% RH",5.7
same,pH of formulation,"[4]; 28-days, 40° C./75% RH",5.7
